Reference: patent US20170355705A1 (GlaxoSmithKline Intellectual Property (No.2) Limited, priority 2014, published 2017)

Molecular target: T1, SIRT1 (Homo sapiens, UniProt Q96EB6)
T1 sequence (Q96EB6 1-747): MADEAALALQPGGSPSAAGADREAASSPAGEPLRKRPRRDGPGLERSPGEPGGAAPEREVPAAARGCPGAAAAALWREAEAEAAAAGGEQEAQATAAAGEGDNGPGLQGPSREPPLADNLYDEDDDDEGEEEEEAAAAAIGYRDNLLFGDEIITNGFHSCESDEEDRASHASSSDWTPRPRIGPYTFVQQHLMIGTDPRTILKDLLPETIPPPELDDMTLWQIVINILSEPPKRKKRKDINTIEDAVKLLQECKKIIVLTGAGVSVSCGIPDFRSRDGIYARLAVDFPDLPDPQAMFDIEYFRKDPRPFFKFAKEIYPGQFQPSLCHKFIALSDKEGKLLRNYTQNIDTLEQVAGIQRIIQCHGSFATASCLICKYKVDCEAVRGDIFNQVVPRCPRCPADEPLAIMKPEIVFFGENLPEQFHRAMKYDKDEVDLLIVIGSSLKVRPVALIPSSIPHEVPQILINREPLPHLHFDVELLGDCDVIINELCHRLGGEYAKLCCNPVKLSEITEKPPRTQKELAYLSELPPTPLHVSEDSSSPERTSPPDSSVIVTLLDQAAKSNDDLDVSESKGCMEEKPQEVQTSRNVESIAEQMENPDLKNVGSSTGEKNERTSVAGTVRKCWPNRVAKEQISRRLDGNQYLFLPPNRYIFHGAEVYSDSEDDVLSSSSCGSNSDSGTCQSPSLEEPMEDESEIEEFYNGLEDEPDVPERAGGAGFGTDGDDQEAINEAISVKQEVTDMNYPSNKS
Experiment: Trp mass spectrometry assay of SIRT1 activity (EC1.5, percent maximum activation)
Assay type: biochemical
Settings: Trp mass spectrometry assay; for TRP Activity (EC1.5): EC1.5 = concentration giving 150% activation of SIRT1; for TRP MAX RESP (percent maximum fold activation): percent maximum activation of SIRT1
Outline: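 Sirtuin deacetylation was run with purified N-His SIRT1 and the 5TMR Trp peptide across a compound titration, stopped after 25 min by acidification, and analysed by MS for OAADPR. Endpoint lay within the linear range.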

SMILES	TRP Activity (EC1.5)	TRP MAX RESP (percent maximum fold activation)
C[C@@H]1CN(c2ccc3c(n2)N(C(=O)Nc2cnccn2)[C@H]2CCN3C2)CCO1 [Example 124, (4S)-7-((R)-2-methylmorpholino)-N-(pyrazin-2-yl)-3,4-dihydro-1,4-methanopyrido[2,3-b][1,4]diazepine-5(2H)-carboxamide]	–	A (Fold activation ≧150%)
C[C@H]1CN(c2ccc3c(n2)N(C(=O)Nc2cnccn2)[C@H]2CCN3C2)CCO1 [Example 125, (4S)-7-((S)-2-methylmorpholino)-N-(pyrazin-2-yl)-3,4-dihydro-1,4-methano pyrido[2,3-b][1,4]diazepine-5(2H)-carboxamide]	–	A (Fold activation ≧150%)
Cc1cc(-c2ccc3c(n2)N(C(=O)Nc2ccc4c(c2)OCCCO4)[C@H]2CCN3C2)ccn1 [Example 126, (4S)-N-(3,4-dihydro-2H-benzo[b][1,4]dioxepin-7-yl)-7-(2-methylpyridin-4-yl)-3,4-dihydro-1,4-methanopyrido[2,3-b][1,4]diazepine-5(2H)-carboxamide]	A (EC1.5<1 μM)	A (Fold activation ≧150%)
Cc1cc(-c2ccc3c(n2)N(C(=O)Nc2cccc4nccnc24)[C@H]2CCN3C2)ccn1 [Example 131, (4S)-7-(2-methylpyridin-4-yl)-N-(quinoxalin-5-yl)-3,4-dihydro-1,4-methanopyrido[2,3-b][1,4]diazepine-5(2H)-carboxamide]	B (EC1.5 1-25 μM)	A (Fold activation ≧150%)

Now from value to compound:

TRP Activity (EC1.5)	TRP MAX RESP (percent maximum fold activation)	SMILES
A (EC1.5<1 μM)	A (Fold activation ≧150%)	CCc1cncc(NC(=O)N2c3nc(-c4ccnc(C)c4)ccc3N3CC[C@H]2C3)n1 [Example 122, (4S)-N-(6-ethylpyrazin-2-yl)-7-(2-methylpyridin-4-yl)-3,4-dihydro-1,4-methanopyrido[2,3-b][1,4]diazepine-5(2H)-carboxamide]
A (EC1.5<1 μM)	A (Fold activation ≧150%)	O=C(Nc1cncc(OC[C@@H](O)CO)n1)N1c2nc(-c3cccc(C(F)(F)F)c3)ccc2N2CC[C@H]1C2 [Example 123, (4S)-N-(6-((S)-2,3-dihydroxypropoxy)pyrazin-2-yl)-7-(3-(trifluoromethyl)phenyl)-3,4-dihydro-1,4-methanopyrido[2,3-b][1,4]diazepine-5(2H)-carboxamide]
A (EC1.5<1 μM)	A (Fold activation ≧150%)	O=C(Nc1ccnc(OC[C@H](O)CO)n1)N1c2nc(-c3cccc(C(F)(F)F)c3)ccc2N2CC[C@H]1C2 [Example 127, (4S)-N-(2-((R)-2,3-dihydroxypropoxy)pyrimidin-4-yl)-7-(3-(trifluoromethyl)phenyl)-3,4-dihydro-1,4-methanopyrido[2,3-b][1,4]diazepine-5(2H)-carboxamide]
A (EC1.5<1 μM)	A (Fold activation ≧150%)	O=C(Nc1cncc(OC[C@H](O)CO)n1)N1c2nc(-c3cccc(C(F)(F)F)c3)ccc2N2CC[C@H]1C2 [Example 128, (4S)-N-(6-((R)-2,3-dihydroxypropoxy)pyrazin-2-yl)-7-(3-(trifluoromethyl)phenyl)-3,4-dihydro-1,4-methanopyrido[2,3-b][1,4]diazepine-5(2H)-carboxamide]
A (EC1.5<1 μM)	A (Fold activation ≧150%)	Cc1cc(-c2ccc3c(n2)N(C(=O)Nc2cc4cn[nH]c4cn2)[C@H]2CCN3C2)ccn1 [Example 130, (4S)-7-(2-methylpyridin-4-yl)-N-(1H-pyrazolo[3,4-c]pyridin-5-yl)-3,4-dihydro-1,4-methanopyrido[2,3-b][1,4]diazepine-5(2H)-carboxamide]
